Each structure is given as a SMILES string.

Results on two compounds are retold here after patent US11523986B2, “Intranasally administered antihistamines and uses thereof” (priority 2019, dated 2022).

One series can be described thus: in vitro. The conditions noted are these: human, DPBS pH 7.4, 120 min, 37° C., diphenhydramine 100 μM, atenolol 100 μM, caffeine 50 μM co-dosed.
The next series concerns EpiAirway tissues. The settings on record: EpiAirway tissues after 120 min, 100 μM.
The test system of the next series is rhinovirus colds. The conditions noted are these: intranasal, phosphate buffer vehicle, patients; Gaffney et al. 1987; cited from earlier work.

Description for EpiAirway tissues: (§1) EpiAirway™ tissues, plated in 24-well plates, and accompanying culture medium and assay buffer solutions, were purchased from MatTek Corporation (Ashland, Mass.). According to the EpiAirway™ AIR-100 Use Protocol provided by MatTek, the tissues were returned to culture immediately upon receipt. In a tissue culture hood, using sterile technique, 1.0 mL of cold medium (AIR-100-ASY) was dispensed into each well of the 6-well plate (n=3) and one tissue insert was transferred to each of the wells. The apical surface of the tissue was exposed to the air (no medium was added to the insert). The tissues were equilibrated overnight at 37° C. in a 5% CO2 incubator. The culture medium was then replaced with fresh, pre-warmed medium until use.
(§2) The unidirectional permeation experiment was conducted according to protocol 18APCIP2 and relevant SOPs of Absorption Systems. Prior to the permeability assay, the culture medium in the plate was aspirated; and ˜1 mL of Dulbecco's phosphate-buffered saline (DPBS) was added to the well to remove any remaining residue of culture medium from the underside of the insert. The tissues were transferred to a 24-well plate with DPBS (750 μL) in each well as receiver, and dosing solution (400 μL) was added to each insert. A 100 μL aliquot was immediately removed as the 0-minute donor sample. Receiver samples (200 μL) were collected at 30, 60, and 120 minutes, replaced with an equal volume of fresh pre-warmed blank buffer at 30 and 60 minutes. The donor side was sampled (100 μL) at 0 and 120 minutes. The assay plate was placed in a humidified CO2 incubator at 37° C. during the assay period.
(§3) After 120 minutes, the tissues were rinsed with DPBS and gently dried with tissue wipes after aspiration of the assay buffer. The insert membranes with tissues attached were carefully removed from the insert apparatus, placed in a tared centrifuge tube, and weighed.
(§4) The apparent permeability coefficient (Papp) and recovery were calculated as follows: Papp=(dCr/dt)×Vr/(A×Cini) (1) Recovery (%)=[((Cr,final×Vr)+(Cd,final×Vd))/(Cini×Vd)]×100 (2) Recovery (%)=[((Cr,final×Vr)+(Cd,final×Vd)+(Tissue Accumulation))/(Cini×Vd)]×100 (3)
(§5) where, • dCr/dt is the slope of cumulative receiver concentration vs. time in μM s^−1; • Vr is the volume of the receiver compartment; • Vd is the volume of the donor compartment; • A is the diffusional area of the membrane; • Cini is the donor concentration at 0 minutes in μM; • CD, final is the donor concentration at 120 minutes in μM; • Cr, final is the receiver concentration at 120 minutes in μM.
(§6) With DPBS, pH 7.4 used on both the donor and receiver sides, permeability was initiated with addition of 0.4 mL of dosing solution into the inserts and of 0.75 mL of blank buffer into the wells of the assay plate. The assay was performed for 120 minutes in a humidified incubator at 37° C.
Description for in vitro: as §1, §2, §3, §4, §5, §6

One may read the Papp A→B as the apparent permeability from the apical to the basolateral side of a cell layer. Take `Cn1c(=O)c2c(ncn2C)n(C)c1=O` [Caffeine, caffeine]: the Papp A→B at 120 min is 29.1 ×10⁻⁶ cm/s in the series “in vitro” (pH 7.4, Papp (10^−6 cm/s) Average ± SD, apical dosing, average); 30.9 ×10⁻⁶ cm/s in the series “in vitro” (pH 7.4, Papp (10^−6 cm/s) R1, apical dosing, replicate R1); 28.2 ×10⁻⁶ cm/s in “in vitro” (pH 7.4, Papp (10^−6 cm/s) R2, apical dosing, replicate R2); 28.2 ×10⁻⁶ cm/s in “in vitro” (pH 7.4, Papp (10^−6 cm/s) R3, apical dosing, replicate R3).

Take `CN(C)CCOC(c1ccccc1)c1ccccc1` [Diphenhydramine, diphenhydramine]: the “Tissue Accumulation (nmol/mg) Average ± SD” value in the series on EpiAirway tissues (average) worked out at 0.212 ± 0.0222 nmol/mg. In addition, the “Tissue Accumulation (nmol/mg) R1” value in the series on EpiAirway tissues (replicate R1) came out at 0.188 nmol/mg. In addition, in the series on EpiAirway tissues (replicate R3), the “Tissue Accumulation (nmol/mg) R3” value worked out at 0.218 nmol/mg. The “therapeutic effect in reducing signs and symptoms of rhinovirus colds” value in the series with rhinovirus colds is “no therapeutic effect”.
